For assay [1], the target named is T1, human JAK1 (a.a. 837-1142) (Homo sapiens, UniProt P23458).
T1 construct: The catalytic domains of human JAK1 (a.a. 837-1142); His tag (N); made in house; host or cells: insect cells (baculovirus)
The experiment in a line: In vitro JAK kinase assay (HTRF, phosphorylation of biotinylated peptide), JAK1. It is filed as biochemical. The conditions noted are these: 1 mM ATP. The method, then: (§1) Compounds herein were tested for inhibitory activity of JAK targets according to the following in vitro assay described in Park et al., Analytical Biochemistry 1999, 269, 94-104. The catalytic domains of human JAK1 (a.a. 837-1142), Jak2 (a.a. 828-1132) and Jak3 (a.a. 781-1124) with an N-terminal His tag were expressed using baculovirus in insect cells and purified. The catalytic activity of JAK1, JAK2 or JAK3 was assayed by measuring the phosphorylation of a biotinylated peptide. The phosphorylated peptide was detected by homogenous time resolved fluorescence (HTRF). IC50s of compounds were measured for each kinase in the 40 microL reactions that contain the enzyme, ATP and 500 nM peptide in 50 mM Tris (pH 7.8) buffer with 100 mM NaCl, 5 mM DTT, and 0.1 mg/mL (0.01%) BSA. The ATP concentration in the reactions was 90 μM for Jak1, 30 μM for Jak2 and 3 μM for Jak3 for Km conditions. For the 1 mM IC50 measurements, ATP concentration in the reactions was 1 mM. Reactions were carried out at room temperature for 1 hr and then stopped with 20 μL 45 mM EDTA, 300 nM SA-APC, 6 nM Eu-Py20 in assay buffer (Perkin Elmer, Boston, Mass.). Binding to the Europium labeled antibody took place for 40 minutes and HTRF signal was measured on a Fusion plate reader (Perkin Elmer, Boston, Mass.). See Tables 1, 2, 3, and 4 for data related to compounds of the invention.
A general note: Time-resolved FRET reads energy transfer from a long-lived donor to a nearby acceptor.

The target in assay [2] is T2, Jak2 (a.a. 828-1132) (Homo sapiens, UniProt O60674).
T2 construct: Jak2 (a.a. 828-1132); His tag (N); made in house; host or cells: insect cells (baculovirus)
T2 sequence (O60674 828-1132): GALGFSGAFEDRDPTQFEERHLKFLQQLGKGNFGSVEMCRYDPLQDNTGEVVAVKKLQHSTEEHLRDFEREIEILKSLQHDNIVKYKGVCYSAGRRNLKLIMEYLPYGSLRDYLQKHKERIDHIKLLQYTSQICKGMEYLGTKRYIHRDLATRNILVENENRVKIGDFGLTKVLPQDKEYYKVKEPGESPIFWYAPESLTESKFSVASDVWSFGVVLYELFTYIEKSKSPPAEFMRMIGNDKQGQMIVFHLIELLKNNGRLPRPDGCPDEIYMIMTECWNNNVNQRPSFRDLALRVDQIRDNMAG
In words: In vitro JAK kinase assay (HTRF, phosphorylation of biotinylated peptide), JAK2. It is filed as biochemical. The conditions noted are these: 1 mM ATP. The method, then: as §1

Where [3] appears, read: Examples 12-91, read-out: JAK1 IC50 (nM) @ 1 mM ATP.
Setting [4] is: Examples 12-91, read-out: JAK2 IC50 (nM) @ 1 mM ATP.
[5] abbreviates: Examples 92-162, read-out: JAK1 IC50 (nM) @ 1 mM ATP.
The mark [6] stands for this setting: Examples 92-162, read-out: JAK2 IC50 (nM) @ 1 mM ATP.

Counter-ions that a name gives are not always drawn. Like-named read-outs stand apart in the source and are kept apart here. A value given as a limit tells only on which side of the number the result lay.

T1 sequence (P23458 849-1154): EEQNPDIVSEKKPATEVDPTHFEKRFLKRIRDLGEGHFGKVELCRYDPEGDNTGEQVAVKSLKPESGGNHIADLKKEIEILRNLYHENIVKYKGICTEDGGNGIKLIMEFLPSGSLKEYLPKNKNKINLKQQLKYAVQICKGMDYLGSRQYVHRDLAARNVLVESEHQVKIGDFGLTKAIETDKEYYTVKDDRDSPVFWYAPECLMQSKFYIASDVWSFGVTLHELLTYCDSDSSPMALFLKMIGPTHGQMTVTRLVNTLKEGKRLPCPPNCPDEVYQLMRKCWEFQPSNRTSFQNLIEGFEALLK

In general, IC50 refers to the concentration needed to halve the response being measured. Regarding “4-(4-(2-(4-(7H-pyrrolo[2,3-d]pyrimidin-4-yl)-1H-pyrazol-1-yl)-3-cyanopropyl)piperazine-1-carbonyl)-3-hydroxybenzonitrile [Example 77]”, the IC50 is under 10 nM in assay [1] (setting [3]) and 10 to 50 nM in assay [2] (setting [4]).
Take `N#CCC(CN1CCN(C(=O)c2ccc(C#N)cc2F)C(CO)C1)n1cc(-c2ncnc3[nH]ccc23)cn1` (mixture of isomers) [Example 160, 4-{[4-{3-cyano-2-[4-(7H-pyrrolo[2,3-d]pyrimidin-4-yl)-1H-pyrazol-1-yl]propyl}-2-(hydroxymethyl)piperazin-1-yl]carbonyl}-3-fluorobenzonitrile]: the results for the 50% inhibitory concentration (IC50) in assay [1] (setting [5]) and in assay [2] (setting [6]) were 20 to 50 nM and over 100 nM, respectively.
As for `C[C@@H]1CN(CC(CC#N)n2cc(-c3ncnc4[nH]ccc34)cn2)CCN1C(=O)c1ccc(C#N)cc1F` (mixture of isomers) [Example 161, 4-[((2R)-4-{3-cyano-2-[4-(7H-pyrrolo[2,3-d]pyrimidin-4-yl)-1H-pyrazol-1-yl]propyl}-2-methylpiperazin-1-yl)carbonyl]-3-fluorobenzonitrile], the IC50 in assay [1] (setting [5]) is 50 to 100 nM; in assay [2] (setting [6]), over 100 nM.
In the case of `C[C@H]1CN(CC(CC#N)n2cc(-c3ncnc4[nH]ccc34)cn2)CCN1C(=O)c1ccc(C#N)cc1F` (mixture of isomers) [Example 162, 4-[((2S)-4-{3-cyano-2-[4-(7H-pyrrolo[2,3-d]pyrimidin-4-yl)-1H-pyrazol-1-yl]propyl}-2-methylpiperazin-1-yl)carbonyl]-3-fluorobenzonitrile], the IC50 was 20 to 50 nM in assay [1] (setting [5]) and over 100 nM in assay [2] (setting [6]).
Regarding `Cn1ccc(S(=O)(=O)N2CCN(CC(CF)n3cc(-c4ncnc5[nH]ccc45)cn3)CC2)n1` (racemic) [Example 10, (±)-4-(1-(1-fluoro-3-(4-(1-methyl-1H-pyrazol-3-ylsulfonyl)piperazin-1-yl)propan-2-yl)-1H-pyrazol-4-yl)-7H-pyrrolo[2,3-d]pyrimidine], the 50% inhibitory concentration (IC50) in assay [1] (Examples 1-11, read-out: IC50 (nM) @ 1 mM ATP JAK1) was under 10 nM; in assay [2] (Examples 1-11, read-out: IC50 (nM) @ 1 mM ATP JAK2), over 20 nM.
Consider `C[C@@H]1CN(C(=O)c2ccc(C#N)cc2F)CCN1CC(CC#N)n1cc(-c2ncnc3[nH]ccc23)cn1` (single isomer, unassigned) [24, R-1], for which the values for the IC50 in assay [1] (setting [3]) and in assay [2] (setting [4]) were under 10 nM and over 100 nM, respectively.
In the same order, the values of `C[C@@H]1CN(C(=O)c2ccc(C#N)cc2F)CCN1CC(CC#N)n1cc(-c2ncnc3[nH]ccc23)cn1` (single isomer, unassigned) [24, R-2] are over 100 nM and over 100 nM.
In the same order, the values of `C[C@H]1CN(C(=O)c2ccc(C#N)cc2F)CCN1CC(CC#N)n1cc(-c2ncnc3[nH]ccc23)cn1` (single isomer, unassigned) [25, S-1] are over 100 nM and over 100 nM.
In the same order, the values of `C[C@H]1CN(C(=O)c2ccc(C#N)cc2F)CCN1CC(CC#N)n1cc(-c2ncnc3[nH]ccc23)cn1` (single isomer, unassigned) [25, S-2] are under 10 nM and over 100 nM.
As to `N#CCC(CN1CCN(C(=O)c2ccc(C#N)cc2F)CC1CO)n1cc(-c2ncnc3[nH]ccc23)cn1` (single isomer, unassigned) [156—peak 1, 4-{[4-{3-cyano-2-[4-(7H-pyrrolo[2,3-d]pyrimidin-4-yl)-1H-pyrazol-1-yl]propyl}-3-(hydroxymethyl)piperazin-1-yl]carbonyl}-3-fluorobenzonitrile trifluoroacetate Salt], the IC50 is under 20 nM in assay [1] (setting [5]) and over 100 nM in assay [2] (setting [6]).
As for `N#CCC(CN1CCN(C(=O)c2ccc(C#N)cc2F)CC1CO)n1cc(-c2ncnc3[nH]ccc23)cn1` (single isomer, unassigned) [156—peak 2, 4-{[4-{3-cyano-2-[4-(7H-pyrrolo[2,3-d]pyrimidin-4-yl)-1H-pyrazol-1-yl]propyl}-3-(hydroxymethyl)piperazin-1-yl]carbonyl}-3-fluorobenzonitrile trifluoroacetate Salt], the IC50 in assay [1] (setting [5]) and in assay [2] (setting [6]) was over 100 nM each time.
For the compound `N#CCC(CN1CCN(C(=O)c2ccc(C#N)cc2F)CC1CO)n1cc(-c2ncnc3[nH]ccc23)cn1` (single isomer, unassigned) [156—peak 3, 4-{[4-{3-cyano-2-[4-(7H-pyrrolo[2,3-d]pyrimidin-4-yl)-1H-pyrazol-1-yl]propyl}-3-(hydroxymethyl)piperazin-1-yl]carbonyl}-3-fluorobenzonitrile trifluoroacetate Salt], the IC50 was 50 to 100 nM in assay [1] (setting [5]) and over 100 nM in assay [2] (setting [6]).
For `N#CCC(CN1CCN(C(=O)c2ccc(C#N)cc2F)CC1CO)n1cc(-c2ncnc3[nH]ccc23)cn1` (single isomer, unassigned) [156—peak 4, 4-{[4-{3-cyano-2-[4-(7H-pyrrolo[2,3-d]pyrimidin-4-yl)-1H-pyrazol-1-yl]propyl}-3-(hydroxymethyl)piperazin-1-yl]carbonyl}-3-fluorobenzonitrile trifluoroacetate Salt], the IC50 in assay [1] (setting [5]) and in assay [2] (setting [6]) was over 100 nM each time.
Consider `N#CCC(CN1CCN(C(=O)c2ccc(C#N)cc2F)CC1)n1cc(-c2ncnc3[nH]ccc23)cn1` (single isomer, unassigned) [Example 12, 4-[(4-{3-cyano-2-[4-(7H-pyrrolo[2,3-d]pyrimidin-4-yl)-1H-pyrazol-1-yl]propyl}piperazin-1-yl)carbonyl]-3-fluorobenzonitrile trifluoroacetate Salt], for which the values for the IC50 in assay [1] (setting [3]) and in assay [2] (setting [4]) were under 10 nM and 50 to 100 nM, respectively.
`N#CCC(CN1CCN(C(=O)c2ccc(C#N)cc2F)CC1)n1ccc(-c2ncnc3[nH]ccc23)c1` (single isomer, unassigned) [Example 13, 4-[(4-{3-cyano-2-[3-(7H-pyrrolo[2,3-d]pyrimidin-4-yl)-1H-pyrrol-1-yl]propyl}piperazin-1-yl)carbonyl]-3-fluorobenzonitrile trifluoroacetate Salt]: the IC50 in assay [1] (setting [3]) was under 10 nM; in assay [2] (setting [4]) it was 50 to 100 nM.
As for `COCC1CN(C(=O)c2ccc(C#N)cc2F)CCN1CC(CC#N)n1cc(-c2ncnc3[nH]ccc23)cn1` (single isomer, unassigned) [Example 157—peak 1, 4-{[4-{3-cyano-2-[4-(7H-pyrrolo[2,3-d]pyrimidin-4-yl)-1H-pyrazol-1-yl]propyl}-3-(methoxymethyl)piperazin-1-yl]carbonyl}-3-fluorobenzonitrile], the IC50 in assay [1] (setting [5]) and in assay [2] (setting [6]) was over 100 nM each time.
In the case of `COCC1CN(C(=O)c2ccc(C#N)cc2F)CCN1CC(CC#N)n1cc(-c2ncnc3[nH]ccc23)cn1` (single isomer, unassigned) [Example 157—peak 2, 4-{[4-{3-cyano-2-[4-(7H-pyrrolo[2,3-d]pyrimidin-4-yl)-1H-pyrazol-1-yl]propyl}-3-(methoxymethyl)piperazin-1-yl]carbonyl}-3-fluorobenzonitrile], the IC50 in assay [1] (setting [5]) was under 20 nM; in assay [2] (setting [6]), over 100 nM.
Consider `COCC1CN(C(=O)c2ccc(C#N)cc2F)CCN1CC(CC#N)n1cc(-c2ncnc3[nH]ccc23)cn1` (single isomer, unassigned) [Example 157—peak 3, 4-{[4-{3-cyano-2-[4-(7H-pyrrolo[2,3-d]pyrimidin-4-yl)-1H-pyrazol-1-yl]propyl}-3-(methoxymethyl)piperazin-1-yl]carbonyl}-3-fluorobenzonitrile], for which the concentration for half-maximal inhibition (IC50) in assay [1] (setting [5]) and in assay [2] (setting [6]) was over 100 nM in each case.
Take `N#CCC(CN1CCN(C(=O)c2ccc(C#N)cc2F)CC1CF)n1cc(-c2ncnc3[nH]ccc23)cn1` (single isomer, unassigned) [Example 158, 4-[(4-{3-cyano-2-[4-(7H-pyrrolo[2,3-d]pyrimidin-4-yl)-1H-pyrazol-1-yl]propyl}-3-fluoromethylpiperazin-1-yl)carbonyl]-3-fluorobenzonitrile]: the IC50 in assay [1] (setting [5]) is under 20 nM; in assay [2] (setting [6]) it was over 100 nM.
Turning to `N#CCC(CN1CCN(C(=O)c2ccc(C#N)cc2F)CC1C(F)F)n1cc(-c2ncnc3[nH]ccc23)cn1` (single isomer, unassigned) [Example 159—peak 1, 4-{[4-{3-cyano-2-[4-(7H-pyrrolo[2,3-d]pyrimidin-4-yl)-1H-pyrazol-1-yl]propyl}-3-(difluoromethyl)piperazin-1-yl]carbonyl}-3-fluorobenzonitrile], the IC50 in assay [1] (setting [5]) and in assay [2] (setting [6]) was over 100 nM each time.

Source of the values: patent US9249145B2, “Heterocyclic derivatives of pyrazol-4-yl-pyrrolo[2,3-d]pyrimidines as janus kinase inhibitors” (Incyte Holdings Corporation, priority 2009, dated 2016).
